This note sets out measurements from patent US10800741B2 (ANCUREALL PHARMACEUTICAL (SHANGHAI) CO., LTD., priority 2017, dated 2020).

As a reminder, the IC50 is the midpoint of a concentration-inhibition curve. The inhibition is the share of the control response that was lost under treatment.

Holding throughout (type): cell-based
The subject of one test is Cal-120. The test can be described thus: In vitro growth inhibition of Cal-120 cells. As to conditions: Homo sapiens, FGFR1 amp. As to the method:
(§1) Adherent cells were digested with 0.25% trypsin-EDTA (Gibco). Suspension culture cells were collected by centrifugation (1700 rpm, 3 minutes). The supernatant was discarded and the cells were counted. According to each cell growth cycle, different concentrations of cells were prepared (5˜10×10^4 cells per ml), and inoculated to 96-well plates (Corning), with 100 μl per well, and incubated overnight at 37° C., 5% CO2. The next day, the test compound was added to the cultured cells (2 wells in parallel). The final concentration of the solvent was less than 1/1,000. The cells were further cultured for 3 to 5 days and assayed by MTT.
(§2) The MTT test reagent was a Dojindo CCK8 kit and the Microplate Reader was a THERMO […] FC instrument.
(§3) The adherent cells were taken out from the cell culture medium, and immediately added to a freshly prepared complete medium containing 10% CCK8 (5% FBS), 100 ul per hole. The suspended cells were directly added to a CCK8 reagent until reaching a final concentration of 10% and cultured for 1 to 4 hours. When a dark yellow color could be observed in the solvent control wells, the absorbance value at OD450 nm was measured and the cell growth rate was calculated according to the following formula: Cell Growth Rate (%)=100×(T−T0)/(C−T0)
(§4) T=optical density of drug-treated cell wells−optical density of blank control wells; T0=optical density of cell wells before drug treatment−optical density of blank control wells; C=optical density of solvent control wells−optical density of blank control wells. […] The experiments were repeated 1 to 3 times and a statistical analysis of data was conducted.
(§5) Mutations in the FGFR1-4 gene often occur in different types of cancer patients. In order to test the growth inhibition activity of the present compound against tumor cells expressing different FGFR variants, tumor cell lines expressing representative FGFR1-4 were selected for further determining the activity of compounds 25, 66, 38 and 95 of the present invention. BGJ398, a selective inhibitor of FGFR1-4, was used as the control compound. The specific test method is the same as test example 1.

Another test relates to JHH-7. The test is described as follows: In vitro growth inhibition of JHH-7 cells. The following applies: Homo sapiens, JHH7, FGFR3+++, FGFR4 +++. On the procedure:
as §1, §2, §3, §4, §5

In a further test the test system is RS4:11. The test can be described thus: In vitro growth inhibition of FLT3 wild type overexpressing cells RS4:11. The following applies: Homo sapiens, cells over expressing FLT3 wild-type. As to the method: as §1, §2, §3, §4
(§6) The present compounds which has a high growth inhibition activity on tumor cells positive expressing FLT3-ITD were selected for the determination of IC50 concentration on FLT3 wild tyoverexpressing cells RS4:11 and FLT3 wild-type normal expressing cells Jurkat. The specific test method is the same as that of test example 1.

Another test relates to Jurkat. The test can be described thus: In vitro growth inhibition of FLT3 wild-type normal expressing cells Jurkat. As to conditions: Homo sapiens, cells normally expressing FLT3 wild-type. As to the method: as §1, §2, §3, §4, §6
Another test has as its system HCC1954. The test can be described thus: In vitro growth inhibition of PI3KCA amplified/mutant tumor cells HCC1954. The following applies: Homo sapiens; HCC1954; PI3KCA H1047R; HER2 amp; read-out: IC50 growth inhibition. On the procedure: (§7) Suspension culture cells were collected by centrifugation (1700 rpm, 3 minutes). The supernatant was discarded and the cells were counted. According to each cell growth cycle, different concentrations of cells were prepared (5˜10×10^4 cells per ml), and inoculated to 96-well plates (Corning), with 100 μl per well, and incubated overnight at 37° C., 5% CO2. The next day, the test compound was added to the cultured cells (2 wells in parallel). The final concentration of the solvent was less than 1/1,000. The cells were further cultured for 3 to 5 days and assayed by MTT.
(§8) The adherent cells were taken out from the cell culture medium, and immediately added to a freshly prepared complete medium containing 10% CCK8 (5% FBS), 100 ul per hole. The suspended cells were directly added to a CCK8 reagent until reaching a final concentration of 10% and cultured for 1 to 4 hours.
as §4

A further test relates to SK-OV-3. The test can be described thus: In vitro growth inhibition of PI3KCA amplified/mutant tumor cells SK-OV-3. The following applies: Homo sapiens; SK-OV-3; PI3KCA H1047R; HER2 amp; read-out: IC50 growth inhibition. As to the method: as §7, §8, §4
The test system of test [1] is human non-small cell lung cancer cell line NCI-H1299 (NRAS Q61K mutation). The test can be described thus: Growth inhibition in combination with MEK1/2 inhibitor Trametinib, NCI-H1299 (NRAS Q61K mutation). The following applies: 5 days. On the procedure: Test Example 5 Synergistic Inhibition Effect of the Present Compounds in Combination with MEK1/2 Inhibitor on the Growth of RAS Mutant Tumor Cells In Vitro
The cell culture, drug treatment and MTT assay of human intestinal cancer cell line HCT116 (KRAS G13D mutation) and human non-small cell lung cancer cell line NCI-H1299 (NRAS Q61K mutation) were performed according to the method of test example 1. Cells were treated with the MEK1/2 inhibitor Trametinib at 25 nM, 2.5 nM and 0.25 nM alone or in combination with compound 66 or 125 of the present invention (5 days).

The structures appear in SMILES notation.

Turning to `COc1cc2nccc(Oc3ccc(NC(=O)Nc4cc(C(C)(C)C)nn4C)c(Cl)c3Cl)c2cc1C(N)=O` [Compound 38, 4-{4-[3-(5-tert-butyl-2-methyl-2H-pyrazol-3-yl)-ureido]-2,3-dichloro-phenoxy}-7-methoxyquinolin-6-carboxamide], the IC50 is 9.77 nM with Cal-120; 9.89 nM with JHH-7; 65.8 nM in the test on RS4:11; 202 nM in the test on Jurkat; 11.8 nM with HCC1954; 32.3 nM in the test on SK-OV-3.
In the case of `COCCOc1cc2nccc(Oc3ccc(NC(=O)Nc4cc(C(C)(C)C)n[nH]4)c(Cl)c3)c2cc1NC(C)=O` [Compound 66, N-[4-{4-[3-(5-tert-butyl-2H-pyrazol-3-yl)-ureido]-3-chloro-phenoxy}-7-(2-methoxy-ethoxy)-quinolin-6-yl]-acetamide], the half-inhibitory concentration (IC50) in the test on Cal-120 turned out to be 9.77 nM; with JHH-7, 12.9 nM; with RS4:11 it was 523 nM; in the test with Jurkat, 462 nM; with HCC1954, 37.5 nM; with SK-OV-3, 42.3 nM. In addition, in test [1] (Homo sapiens, NCI-H1299, 120 h, compound 7.8 nM alone (solvent instead of Trametinib), read-out: cell growth inhibition (percentage)), the inhibition at 0.0078 µM turned out to be 1.39%. For the same compound, the inhibition at 0.0156 µM in test [1] (Homo sapiens, NCI-H1299, 120 h, compound 15.6 nM alone (solvent instead of Trametinib), read-out: cell growth inhibition (percentage)) amounted to 4.59%. Moreover, the “cell growth inhibition (percentage)” value is given as 11.67% in test [1] (compound 7.8 nM + Trametinib 0.25 nM); 20.73% in test [1] (compound 7.8 nM + Trametinib 2.5 nM); 37.88% in test [1] (compound 7.8 nM + Trametinib 25 nM); 16.82% in test [1] (compound 15.6 nM + Trametinib 0.25 nM); 26.10% in test [1] (compound 15.6 nM + Trametinib 2.5 nM); 42.52% in test [1] (compound 15.6 nM + Trametinib 25 nM).
On to `CN1CCN(CCCOc2cc3nccc(Oc4ccc(NC(=O)Nc5cc(C(C)(C)C)n[nH]5)c(Cl)c4Cl)c3cc2C(N)=O)CC1` [Compound 95], for which the IC50 with Cal-120 was determined as 9.77 nM; with JHH-7 it was 17.6 nM; with HCC1954, 9.94 nM; in the test with SK-OV-3, 26.4 nM.
